Experimental data reported in US11987835B2, “Amino acid-sensing diguanylate cyclase and methods of use” (priority 2019, dated 2024).

Columns and labels:
[1] = system: Aer01 SpdE tandem PAS/dCache region (residues 37-287); assay: Thermofluor (thermal shift) assay, Aer01 SpdE; type: binding, Aeromonas veronii; details: 10 mM pure amino acid; for thermal shift (ΔTm) in words: replicate ΔTm data
Protocol: (§1) Thermofluor Assay. The periplasmic portion of SpdE was cloned, expressed and purified in E. coli. Thermofluor assays were performed using a Thermo Fisher Scientific StepOnePlus Real-time PCR instrument. Each 20 μL sample contained 0.1 mg/mL SpdE protein, 4× SYPRO Orange dye, 165 mM NaCl, 80 mM Tris pH 7.5 and 10 mM ligand (free amino acid dissolved in water). All samples were done in triplicate and repeated 2-3 times on different days. All reagents and steps were performed at 4° C. and placed in 96 well PCR plates. The PCR plate was slowly heated (˜0.03° C./sec) from 4° C. to 80° C. in the StepOnePlus instrument and fluorescent measurements were taken every 8.5 sec. The resultant thermal shift curves were analyzed to find the inflexion points, which correspond to the melting temperature (Tm) of the protein (with or without ligand). Inflexion points were determined in Microsoft Excel by calculating the half way point between the minimum fluorescence value prior to fluorescence increase and the maximum fluorescence value. The Tm difference between protein with and without ligand was calculated and plotted to determine the thermal stability shift as a proxy for ligand binding.
In order to identify SpdE ligands, a thermal shift assay was conducted using 96-well Biolog Phenotype MicroArray plates as a high-throughput approach to screen compounds for ligand candidates. Using heterologously expressed and purified tandem PAS/dCache region of the protein (residues 37-287), ˜200 compounds were screened for ones that conferred a significant shift in protein thermal stability (see Table 4). […] For each curve, the melting temperature (Tm) was determined (brown circles), which corresponds to the midpoint of protein unfolding. The ΔTm (difference between test Tm and water control Tm) was calculated for each amino acid condition.

[2] = system: SpdE diguanylate cyclase activity in Aer01; assay: Intracellular cyclic di-GMP quantification; type: cell-based, Aeromonas veronii; details: WT Aer01, 1 mM amino acid, ~4 hrs, versus no ligand
Protocol: Intracellular cyclic di-GMP quantification. […] Cultures were incubated, shaking, at 30° C. for 4 hours. Sample OD600 was measured and the entire volume pelleted. Sample pellets were resuspended in 300 μL ice cold extraction buffer (40/40/20 acetonitrile/methanol/water+0.1 N formic acid), iced for 30 min, then pelleted at maximum speed in tabletop microcentrifuge for 10 min. The supernatant was transferred to a new tube and stored at −80° until being vacuum concentrated until completely evaporated.
Dried samples were resuspended in 100 μL Ultra Performance liquid chromatography-grade water and centrifuged for two minutes at 18,000×g (Eppendorf® Centrifuge 5242R). The debris-free supernatants were moved to LCMS Certified Clear Glass 12×32 mm screw neck max recovery vials (Waters®). Ten microliters of each sample were analyzed using LC-MS/MS on a Quattro Premier XE mass spectrometer coupled with an Acquity Ultra Performance LC system (Waters®). Cyclic di-GMP was detected with electrospray ionization using multiple reaction monitoring in negative-ion mode at m/z 689.16→344.31. […]
In the case of SpdE, ligand binding to the PAS/Cache was hypothesized to regulate SpdE diguanylate cyclase activity, thereby altering intracellular levels of c-di-GMP. To test this, WT and ΔspdE Aer01 were incubated in the presence or absence of amino acid ligands for ˜4 hrs, then pelleted and lysed the cells to extract and quantify intracellular c-di-GMP.

Aer01 [3] = type: cell-based, Aeromonas veronii
Protocol: Exploration Assay. Overnight cultures (TSB) of Aer01 Strains were pelleted (1 mL), and resuspended in 1 ml sterile EM. […] The cultures were incubated, shaking, at 30° C. for 3 hours. An aliquot of each culture was passed through a 0.2 μM filter (Corning® Costar® Spin-X® centrifuge tube filters) to generate cell-free supernatant. To a sterile 96-well plate round-bottom plate, 80 μL of unfiltered culture was added to each well to include five replicates for each condition. To another sterile 96-well plate round-bottom plate, 80 μL of the cell-free supernatant was added to each well to replicate the layout of the culture plate. Using a Rainin Liquidator™ 96-channel benchtop pipettor, 5 μL of the cell-free supernatant was pulled up into 20 μL Rainin pipette tips. These tips then were lowered down into the wells of the culture plate so the tips were submerged to half the depth of the culture volume in the wells. This set-up was incubated at room temperature for 30 min, during which time the cells in the culture can swim up into the supernatant in the pipette tips. After incubation, the contents of the tips were ejected into the wells of a sterile 96-well plate (Corning, flat-bottom, #3595) to which 195 μL of sterile TSB medium was added to each well. This plate was immediately placed in a FLUOstar Omega microplate reader (BMG Labtech, Offenburg, Germany) and growth curves monitored by measuring absorbance (600 nm) every 10 min for 12-16 hrs, with 30° C. incubation and constant shaking. The growth curves were plotted and the times at which the absorbance passed 0.5 was determined for each plot. The time difference between a particular condition and a reference condition (as indicated in FIG. 5C) represents the “exploration response” of Aer01 in that condition.
An “exploration assay” was used to measure population-level motility. For this assay Aer01 was incubated in the presence/absence of amino acid ligand (1 mM) for˜4 hrs, then the culture was added to the wells of a 96-well plate and pipette tips filled with the cell-free supernatant of the same cultures was lowered into the wells (FIG. 13). During a 30 min incubation period the Aer01 cells in the wells swam up into the pipette tips. […] To quantify the number of cells in the pipette tips after the 30 min exploration time, the contents of the pipette tips were ejected into the wells of a 96-well plate containing rich media and growth curves were monitored. […] This time difference between conditions, “exploration response,” was calculated to compare across many strains and conditions (FIG. 12C).

Aer01 [4] = type: cell-based, Aeromonas veronii; remark: listed apart in the source
Protocol: Live imaging and quantification of Aer01 motility. […] EM containing proline or valine (pH adjusted to 7.8 with HCl/NaOH) was added to the wells to generate the desired final concentrations of amino acid (0, 1 nM, 10 nM, 100 nM, 1 μM, or 1 mM) and cell densities of OD 0.1, each performed in triplicate. The tray was covered by parafilm and incubated at 30° C. for 5 hours. Cells were imaged between hour 5-6. Prior to imaging, bacterial samples were moved to a temperature-controlled box housing the microscope, heated to 30° C. 2 ul of bacteria from treatments were applied to a well slide (MP Biomedicals 10-well multitest slides #096041805), covered with a coverslip, and imaged immediately. Videos of bacteria were captured using a Nikon Eclipse Ti inverted microscope on the GFP channel using 20× magnification at 39 frames per second. Videos of treated bacteria were analyzed with particle tracking software (Parthasarathy, Nature Methods 9:724-236, 2012) using these settings: “objects” were identified using bpfilter 3, nsize 7, and gradobjsize 0. A standard threshold of 3.99-6 was applied, depending on the degree of background. Motile bacteria were defined as objects tracked over at least 1 s (39 frames) with a standard deviation in position of pixels/frame of at least 1.
To do this, Aer01 was incubated in medium+/−ligand (ranging between 0 and 1 mM) then wet-mounted and imaged on an inverted microscope.

Aer01 [5] = type: cell-based, Aeromonas veronii; remark: listed apart in the source
Protocol: For light-sheet microscope-based imaging and determination of cellular swim speeds, overnight cultures (TSB) of strains (dTomato-tagged Aer01 and dTomato-tagged ΔspdE) were washed twice with sterile EM, as above. […] FC-EM was generated by collecting the flask EM of GF 5 or 6 dpf zebrafish larvae, filter-sterilizing and storing at 4° C. A glass cuvette was filled with culture and imaged on a custom-built light sheet fluorescence microscope, as previously described (Taormina et al., Biol. Bull. 223:7-20, 2012). The light sheet optically sections bulk samples in the center of the cuvette, so as not to constrain the motility of the imaged bacteria by surfaces. Movies in a single optical plane were captured for a duration of 20 seconds (frame rate of 30 frames/sec) with excitation light provided by a 561 nm solid state laser (Coherent Sapphire 20 mW; all strains expressed dTomato fluorescent protein). […] As above, particle tracking software, which uses a radial-symmetry-based algorithm, was used to analyze images (Parthasarathy, Nature Methods 9:724-726, 2012). The following parameters were used: bpfiltsize=7, nsize=7, gradobjsize=7, 1/nhood=true. […]
Therefore, the cells were next imaged in a cuvette on a light sheet microscope where they would be recorded within a three-dimensional space and not impeded by surfaces. […]

Aer01 [6] = assay: Biofilm assay (crystal violet); type: cell-based, Aeromonas veronii; details: WT Aer01, 1 mM ligand, 48 hrs
Protocol: Biofilm Assay. […] To the wells of a sterile 96-well plate (Corning, flat-bottom, #3595), 150 μL of each resuspended culture was added, in triplicate. A blank control well was added for each condition using the appropriate uninoculated media. This plate was incubated at 30° C., stationary, for 48 hours. After incubation, the biofilms were quantified using a standard crystal violet biofilm staining procedure. […] Briefly, the supernatant was removed from each well, then the wells gently rinsed three times with 150 μL sterile EM. Then, 150 μL 0.1% crystal violet was added to each well and the plate was incubated at room temperature for 10 minutes, followed by five rinses with 150 μL sterile EM. To destain, 150 μL 95% ethanol was added to each well and the plate was incubated at room temperature for 10 minutes. Each well was mixed well and the contents transferred to a clean 96-well plate and the absorbance (570 nm) was read on a FLUOstar Omega microplate reader (BMG Labtech, Offenburg, Germany).

[7] = system: Aer01 colonization of larval zebrafish gut; assay: Bacterial competitions in vivo (competitive index); details: GF zebrafish
Protocol: Bacterial competitions in vivo. For in vivo bacterial competitions, strains (purified evolved isolates, or Aer01 genetic variants) were grown overnight in TSB from freezer stocks. 1 ml of the overnight cultures were pelleted (8,700 rcf, 2 min), then resuspended in 1 ml sterile EM. Competing strains were mixed, then added to flasks of 4 dpf GF (or CV fish) WT fish at ˜10^6 CFU/ml. For all competitions, sfGFP-tagged Aer01 was used as the “reference” strain. […] At 7 dpf, fish intestines were dissected as described above, and each intestine transferred into a 1.6 ml tube containing 500 μl sterile EM and ˜100 μl bullet beads, then bullet blended as described above. Homogenized samples were diluted appropriately in sterile EM, spread plated on TSA plates, incubated at 30° C. for 1-2 days, and the colonies counted. Strains were differentiated by fluorescence microscopy. Competitive index (CI) was calculated by dividing the strain ratio (test strain divided by reference strain) in the gut at the end of the competition by the strain ratio in the inoculum ((test/reference)gut/(test/reference)inoculum) (FIG. 1). The limit of detection is 5 CFU/gut; for samples were one strain was below the limit of detection, the abundance was set to 5 CFU in order to calculate a CI; this was the case for few of the samples.
To test whether WT motility, and therefore immigration into the host, could be increased with addition of ligands, competitions were performed as previously described, this time supplementing the inoculum and flask medium with SpdE ligand.

[8] = Thermofluor assay with Aer01 SpdE single residue variants; type: binding, Aeromonas veronii; details: single residue change versus wild-type Aer01 SpdE PAS/dCache
Protocol: as §1, with “binding. […]” for “binding.”

[9] = SpdE-NarQ chimeric sensor β-galactosidase reporter; type: cell-based, Escherichia coli; details: expected from sensitivity of SpdE-dependent responses
From the text: SpdE tandem PAS/dCache is a sensitive and specific sensor of particular amino acids. This domain is utilized for the design of novel biosensors of amino acid ligands by engineering chimeric reporter proteins fusing them to the signaling domain of an Escherichia coli protein, NarQ. NarQ is a nitrate/nitrite sensor which contains a C-terminal histidine kinase signaling domain. Here, the SpdE-NarQ hybrid protein includes the tandem PAS/dCache sensing domain (proximal and distal PAS/Cache domains) and both transmembrane domains of SpdE, and the HAMP and histidine kinase signaling domain of NarQ (FIG. 21A). When activated, the NarQ signaling domain auto-phosphorylates, then transfers the phosphoryl group to NarL, a transcriptional activator that binds nitrate-responsive promotors such as narG. In this system LacZ, a β-galactosidase, is under the control of the narG promoter, therefore activation of NarL results in expression of LacZ and increased β-galactosidase activity. The β-galactosidase activity is quantified via a colorimetric assay. Based on the sensitivity of SpdE-dependent responses in the assays disclosed herein, this hybrid protein is expected to detect ligand concentrations of 10 μM or less. […] Therefore, β-galactosidase activity will decrease with increasing ligand concentrations (e.g., FIG. 21B).

In the case of `NCC(=O)O` [Glycine, glycine], the “thermal shift (ΔTm) in words” value [1] is reported as “negative amino acid control” and the “intracellular c-di-GMP” value [2] is reported as “no change”.

With `C[C@H](N)C(=O)O` [alanine] the “thermal shift (ΔTm) in words” value [1] was “smaller degree”.

With `CC[C@H](C)[C@H](N)C(=O)O` [isoleucine] the “thermal shift (ΔTm) in words” value [1] was “largest shifts”.

In the case of `CC(C)C[C@H](N)C(=O)O` [leucine], the “thermal shift (ΔTm) in words” value [1] is reported as “smaller degree”.

For `CSCC[C@H](N)C(=O)O` [methionine], the “thermal shift (ΔTm) in words” value [1] was “smaller degree”.

With `O=C(O)[C@@H]1CCCN1` [proline] the “ΔTm (difference between test Tm and water control Tm)” value [1] was ~20 degrees, the “thermal shift (ΔTm) in words” value [1] was “largest shifts” and the “intracellular c-di-GMP” value [2] was “significantly lower”. For the same molecule, the “motility response in exploration assay” value (Aer01 [3]; WT Aer01, 100 nM proline) was “a response was measured”, the exploration response (Aer01 [3]; WT Aer01, 1 mM ligand versus WT without ligand, mean) was 28.9 min and the “exploration response across proline concentrations” value (Aer01 [3]; WT Aer01, between 100 nM and 1 mM proline) was “dose-dependent response trend”. The motility (Aer01 [4]) was “little increase”, the “number of motile cells” value (Aer01 [4]) was “striking increase” and the “cellular velocity (average of median values)” value (Aer01 [5]; WT Aer01, 1 mM proline (12.6 μm/sec without ligand)) was 24.5 μm/sec. The cellular velocity change (Aer01 [5]; ΔspdE, 1 mM proline) was “did not increase”, the biofilm formation (Aer01 [6]) was “more robust biofilms in the absence of ligand” and the “CI of ΔspdE versus WT” value ([7]; 100 nM and 10 nM proline) was “reduced CI but to a much lesser extent”. The “median CI (competitive index) of ΔspdE versus WT” value ([7]; ligand supplemented into inoculum and flask medium (1 mM proline)) was 2.

For `C[C@@H](O)[C@H](N)C(=O)O` [threonine], the “thermal shift (ΔTm) in words” value [1] was “smaller degree”.

B1: W140/146A: Aer01 SpdE PAS/dCache variant, single residue change in the distal PAS/Cache (protein, listed as Aeromonas veronii)
chain: MSPAKPKNTWSLITRMRLGFLLLFIPVLLLGSIYYLHMERTLRHEQQQYLIARNTQYFHTLIEPYLATLKRQFTLIYQQVNYRDFSGPEIRNGERYLQQWQAYHKVMELDYVYVGTEHRKMLIHPSWQADEKFDPRTRPAYLLAASHPGQIVWTDPYYDYTLGTLTMALARVIKDPDGKRVGVLSLDTQLTPLASWLNSRHAQSHHLGNGYQLLLNHDGLVLAHPDRERVFKPLAHPDWLARMQQPQGFFLDDASGLMVSYYRIPEQRWILLSVEPTASMQQVIDSVSINVQLMIAVACFFYLLLALLWARYFRRMLGEITLLIRTSRSGGTAYHGSRMLELAKVYEEMDAASQDFAQIRQQANQDKLTGLYNRRFFDECLQKQLNSGAPFGVVMFDLDDFKRVNDTHGHQAGDVVLKRVSKLGMNLFHEWGWFCRYGGEELVLIFRYGEEQPMLPSLLEAFRLGVEQLEWREPDLTITISGGVAFSRSGLSAKELVELADKGVYQAKREGKNRICFPLRHTPHQSAEEGVPAFGETQQQTNEG
In the case of B1, the “ligand binding (thermal shift)” value [8] is reported as “reduction in ligand binding”.

B2: Y157/163A: Aer01 SpdE PAS/dCache variant, single residue change in the distal PAS/Cache (protein, listed as Aeromonas veronii)
chain: MSPAKPKNTWSLITRMRLGFLLLFIPVLLLGSIYYLHMERTLRHEQQQYLIARNTQYFHTLIEPYLATLKRQFTLIYQQVNYRDFSGPEIRNGERYLQQWQAYHKVMELDYVYVGTEHRKMLIHPSWQADEKFDPRTRPWYLLAASHPGQIVWTDPAYDYTLGTLTMALARVIKDPDGKRVGVLSLDTQLTPLASWLNSRHAQSHHLGNGYQLLLNHDGLVLAHPDRERVFKPLAHPDWLARMQQPQGFFLDDASGLMVSYYRIPEQRWILLSVEPTASMQQVIDSVSINVQLMIAVACFFYLLLALLWARYFRRMLGEITLLIRTSRSGGTAYHGSRMLELAKVYEEMDAASQDFAQIRQQANQDKLTGLYNRRFFDECLQKQLNSGAPFGVVMFDLDDFKRVNDTHGHQAGDVVLKRVSKLGMNLFHEWGWFCRYGGEELVLIFRYGEEQPMLPSLLEAFRLGVEQLEWREPDLTITISGGVAFSRSGLSAKELVELADKGVYQAKREGKNRICFPLRHTPHQSAEEGVPAFGETQQQTNEG
With B2 the “ligand binding (thermal shift)” value [8] was “reduction in ligand binding”.

B3: SpdE-NarQ hybrid protein: SpdE tandem PAS/dCache and transmembrane domains fused to HAMP and histidine kinase signaling domain of E. coli NarQ (protein)
chain: MSPAKPKNTWSLITRMRLGFLLLFIPVLLLGSIYYLHMERTLRHEQQQYLIARNTQYFHTLIEPYLATLKRQFTLIYQQVNYRDFSGPEIRNGERYLQQWQAYHKVMELDYVYVGTEHRKMLIHPSWQADEKFDPRTRPWYLLAASHPGQIVWTDPYYDYTLGTLTMALARVIKDPDGKRVGVLSLDTQLTPLASWLNSRHAQSHHLGNGYQLLLNHDGLVLAHPDRERVFKPLAHPDWLARMQQPQGFFLDDASGLMVSYYRIPEQRWILLSVEPTASMQQVIDSVSINVQLMIAVACFFYLLLALLWLNQLVTASQRIEHGQFDSPPLDTNLPNELGLLAKTFNQMSSELHKLYRSLEASVEEKTRDLHEAKRRLEVLYQCSQALNTSQIDVHCFRHILQIVRDNEAAEYLELNVGENWRISEGQPNPELPMQILPVTMQETVYGELHWQNSHVSSSEPLLNSVSSMLGRGLYFNQAQKHFQQLLLMEERATIARELHDSLAQVLSYLRIQLTLLKRSIPEDNATAQSIMADFSQALNDAYRQLRELLTTFRLTLQQADLPSALREMLDTLQNQTSAKLTLDCRLPTLALDAQMQVHLLQIIREAVLNAMKHANASEIAVSCVTAPDGNHTVYIRDNGIGIGEPKEPEGHYGLNIMRERAERLGGTLTFSQPSGGGTLVSISFRSAEGEESQLM
modifications: SpdE-NarQ fusion protein
With B3 the detectable ligand concentration [9] was ≤ 10 µM.
